Literature values as cited in patent publication US7044945B2, “Prevention of regression in thermal ciliary muscle tendinoplasty” (priority 2001, dated 2006).

Key:
[1] = in mammals

solubility in water and alcohol	SMILES	tensile strength of the wounds (healing wound; compared with controls)	thermal shrinkage temperature of individual collagen fibers from the wounds (healing wound; treated wounds compared to comparable controls)	toxicity [1]
–	CCN=C=NCCCN(C)C.Cl [1-ethyl-1-3 (3-dimethylaminopropyl) carbodiimide hydrochloride]	sizable increase	increased	–
completely soluble	OCC(O)CO [glycerol]	–	–	very low toxicity
